Test results as given in patent US9714247B2, “Multiple kinase pathway inhibitors” (Mannkind Corporation, priority 2012, dated 2017).
Read-outs that look alike come from different tables or passages of the source.

Tests used:
DoHH2 = test: CellTiter-Glo proliferation/viability assay; type: cell-based, human; conditions: Homo sapiens
CDK9/cyclinT1(h) = CDK9/cyclinT1(h) (Homo sapiens (Human), UniProt P50750); test: IC50 profiler radiometric kinase assay (Millipore); type: biochemical; conditions: CMGC
BTK = BTK (Homo sapiens (Human), UniProt Q06187); conditions: read-out: BTK IC50
MAPK1(h) = MAPK1(h) (Homo sapiens (Human), UniProt P27361); test: IC50 profiler radiometric kinase assay (Millipore); type: biochemical; conditions: CMGC
Description: (§1) In order to determine the relative enzyme selectivity of these amino naphthyridinones, representative amino naphthyridinones were evaluated for their ability to inhibit various kinases. Kinases were selected for a broad representation of the kinome (see FIG. 2: Kinases Evaluated). Compounds were evaluated using the IC50 profiler assay (Millipore), which measures substrate phosphorylation via γ-^33P-ATP transfer by the kinase of interest.
(§2) The assay directly measures the catalytic incorporation of phosphate onto kinase substrates. The kinase protein is incubated in buffer with substrate and γ-^33P-ATP. The reaction is initiated by the addition of the Mg-ATP mix. At the end of the reaction incubation time, the reaction is stopped by the addition of phosphoric acid solution and 10 μL of the reaction is spotted onto a filtermat, washed, dried and counted in scintillation fluid. […] In particular the amino naphthyridinones inhibited Abl and some but not all tested members of the Tec and Src families of tyrosine kinases, but not tyrosine-like kinases or the non-tyrosine kinases tested (See FIG. 2: Compound 1). […] Other known drugs with activity against BTK and SFKs, such as dasatinib and bosutinib, have activity against a broader array of tyrosine kinases as well as inhibiting non-tyrosine kinases (See FIG. 2: Dasatinib).

JAK3(h) = JAK3(h) (Homo sapiens (Human), UniProt P52333); test: IC50 profiler radiometric kinase assay (Millipore); type: biochemical; conditions: TK
Description: as §1, §2

IKKα(h) = IKKα(h) (Homo sapiens (Human), UniProt O15111); test: IC50 profiler radiometric kinase assay (Millipore); type: biochemical; conditions: MISC
Description: as §1, §2

Lyn(h) = Lyn(h) (Homo sapiens (Human), UniProt P07948); test: IC50 profiler radiometric kinase assay (Millipore); type: biochemical; conditions: TK
Description: as §1, §2

PAK2(h) = PAK2(h) (Homo sapiens (Human), UniProt Q13177); test: IC50 profiler radiometric kinase assay (Millipore); type: biochemical; conditions: STE
Description: as §1, §2

IKKβ(h) = IKKβ(h) (Homo sapiens (Human), UniProt O14920); test: IC50 profiler radiometric kinase assay (Millipore); type: biochemical; conditions: MISC
Description: as §1, §2

GSK3β(h) = GSK3β(h) (Homo sapiens (Human), UniProt P49841); test: IC50 profiler radiometric kinase assay (Millipore); type: biochemical; conditions: CMGC
Description: as §1, §2

c-RAF(h) = c-RAF(h) (Homo sapiens (Human), UniProt P04049, Y340D/Y341D); test: IC50 profiler radiometric kinase assay (Millipore); type: biochemical; conditions: TKL
Description: as §1, §2

Syk(h) = Syk(h) (Homo sapiens (Human), UniProt P43405); test: IC50 profiler radiometric kinase assay (Millipore); type: biochemical; conditions: TK
Description: as §1, §2

Met(h) = Met(h) (Homo sapiens (Human), UniProt P08581); test: IC50 profiler radiometric kinase assay (Millipore); type: biochemical; conditions: TK
Description: as §1, §2

JAK2(h) = JAK2(h) (Homo sapiens (Human), UniProt O60674); test: IC50 profiler radiometric kinase assay (Millipore); type: biochemical; conditions: TK
Description: as §1, §2

Plk1(h) = Plk1(h) (Homo sapiens (Human), UniProt P53350); test: IC50 profiler radiometric kinase assay (Millipore); type: biochemical; conditions: MISC
Sequence of Plk1(h) (P53350 whole entry): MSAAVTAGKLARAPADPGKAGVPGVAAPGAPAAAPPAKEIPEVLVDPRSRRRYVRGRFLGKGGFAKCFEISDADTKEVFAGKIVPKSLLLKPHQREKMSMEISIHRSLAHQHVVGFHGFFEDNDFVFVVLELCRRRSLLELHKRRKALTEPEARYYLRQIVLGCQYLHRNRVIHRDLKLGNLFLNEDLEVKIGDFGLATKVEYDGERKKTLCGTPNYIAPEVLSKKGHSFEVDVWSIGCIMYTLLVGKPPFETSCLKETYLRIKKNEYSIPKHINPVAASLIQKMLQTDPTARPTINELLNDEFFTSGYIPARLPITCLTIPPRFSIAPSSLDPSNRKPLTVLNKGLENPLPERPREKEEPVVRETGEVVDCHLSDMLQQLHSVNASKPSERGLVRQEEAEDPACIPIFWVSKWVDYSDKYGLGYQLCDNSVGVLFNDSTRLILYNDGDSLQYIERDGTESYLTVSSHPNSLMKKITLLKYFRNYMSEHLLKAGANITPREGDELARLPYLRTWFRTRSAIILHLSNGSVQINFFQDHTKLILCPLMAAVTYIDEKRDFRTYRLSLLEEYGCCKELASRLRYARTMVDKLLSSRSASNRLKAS
Description: as §1, §2

c-Kit(D816V)(h) = c-Kit(D816V)(h) (Homo sapiens (Human), UniProt P10721, D816V); test: IC50 profiler radiometric kinase assay (Millipore); type: biochemical; conditions: TK
Description: as §1, §2

Src(1-530)(h) = Src(1-530)(h) (Homo sapiens (Human), UniProt P12931); test: IC50 profiler radiometric kinase assay (Millipore); type: biochemical; conditions: TK
Sequence of Src(1-530)(h) (P12931 whole entry, looked up): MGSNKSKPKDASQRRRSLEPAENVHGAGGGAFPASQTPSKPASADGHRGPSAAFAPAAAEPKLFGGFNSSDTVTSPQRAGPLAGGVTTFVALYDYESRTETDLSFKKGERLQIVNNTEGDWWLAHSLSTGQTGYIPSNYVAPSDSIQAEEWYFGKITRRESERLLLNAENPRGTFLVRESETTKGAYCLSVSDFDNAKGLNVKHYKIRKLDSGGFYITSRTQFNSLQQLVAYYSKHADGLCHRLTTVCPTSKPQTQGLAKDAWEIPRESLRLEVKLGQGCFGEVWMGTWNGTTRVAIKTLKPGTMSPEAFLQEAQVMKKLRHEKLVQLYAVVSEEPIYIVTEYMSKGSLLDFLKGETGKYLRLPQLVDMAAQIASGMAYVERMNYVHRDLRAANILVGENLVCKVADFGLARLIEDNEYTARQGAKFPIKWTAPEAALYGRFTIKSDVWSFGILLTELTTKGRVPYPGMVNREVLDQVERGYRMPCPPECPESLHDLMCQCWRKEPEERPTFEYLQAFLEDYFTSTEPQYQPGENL
Description: as §1, §2

Bmx(h) = Bmx(h) (Homo sapiens (Human), UniProt P51813); test: IC50 profiler radiometric kinase assay (Millipore); type: biochemical; conditions: TK
Description: as §1, §2

SAPK2a(h) = SAPK2a(h) (Homo sapiens (Human), UniProt Q16539); test: IC50 profiler radiometric kinase assay (Millipore); type: biochemical; conditions: CMGC
Description: as §1, §2

ASK1(h) = ASK1(h) (Homo sapiens (Human), UniProt Q99683); test: IC50 profiler radiometric kinase assay (Millipore); type: biochemical; conditions: STE
Description: as §1, §2

Itk(h) = Itk(h) (Homo sapiens (Human), UniProt Q08881); test: IC50 profiler radiometric kinase assay (Millipore); type: biochemical; conditions: TK
Sequence of Itk(h) (Q08881 whole entry): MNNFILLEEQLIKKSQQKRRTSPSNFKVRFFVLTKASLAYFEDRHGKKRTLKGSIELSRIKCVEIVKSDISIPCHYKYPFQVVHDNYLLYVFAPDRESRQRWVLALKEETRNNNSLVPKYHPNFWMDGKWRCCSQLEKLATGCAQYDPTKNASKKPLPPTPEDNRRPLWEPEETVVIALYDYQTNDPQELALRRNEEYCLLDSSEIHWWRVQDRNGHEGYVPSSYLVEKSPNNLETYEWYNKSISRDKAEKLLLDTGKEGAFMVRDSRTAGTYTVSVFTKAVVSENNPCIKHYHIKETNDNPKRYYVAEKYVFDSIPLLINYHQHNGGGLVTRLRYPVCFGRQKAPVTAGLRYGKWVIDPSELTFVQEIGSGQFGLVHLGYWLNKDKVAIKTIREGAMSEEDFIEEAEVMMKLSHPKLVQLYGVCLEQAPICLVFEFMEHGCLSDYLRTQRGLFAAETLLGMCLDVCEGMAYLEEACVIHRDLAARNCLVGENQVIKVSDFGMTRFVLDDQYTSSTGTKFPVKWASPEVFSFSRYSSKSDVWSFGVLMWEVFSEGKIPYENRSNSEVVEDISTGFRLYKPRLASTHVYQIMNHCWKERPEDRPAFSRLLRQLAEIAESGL
Description: as §1, §2

EGFR(h) = EGFR(h) (Homo sapiens (Human), UniProt P00533); test: IC50 profiler radiometric kinase assay (Millipore); type: biochemical; conditions: TK
Sequence of EGFR(h) (P00533 25-1210): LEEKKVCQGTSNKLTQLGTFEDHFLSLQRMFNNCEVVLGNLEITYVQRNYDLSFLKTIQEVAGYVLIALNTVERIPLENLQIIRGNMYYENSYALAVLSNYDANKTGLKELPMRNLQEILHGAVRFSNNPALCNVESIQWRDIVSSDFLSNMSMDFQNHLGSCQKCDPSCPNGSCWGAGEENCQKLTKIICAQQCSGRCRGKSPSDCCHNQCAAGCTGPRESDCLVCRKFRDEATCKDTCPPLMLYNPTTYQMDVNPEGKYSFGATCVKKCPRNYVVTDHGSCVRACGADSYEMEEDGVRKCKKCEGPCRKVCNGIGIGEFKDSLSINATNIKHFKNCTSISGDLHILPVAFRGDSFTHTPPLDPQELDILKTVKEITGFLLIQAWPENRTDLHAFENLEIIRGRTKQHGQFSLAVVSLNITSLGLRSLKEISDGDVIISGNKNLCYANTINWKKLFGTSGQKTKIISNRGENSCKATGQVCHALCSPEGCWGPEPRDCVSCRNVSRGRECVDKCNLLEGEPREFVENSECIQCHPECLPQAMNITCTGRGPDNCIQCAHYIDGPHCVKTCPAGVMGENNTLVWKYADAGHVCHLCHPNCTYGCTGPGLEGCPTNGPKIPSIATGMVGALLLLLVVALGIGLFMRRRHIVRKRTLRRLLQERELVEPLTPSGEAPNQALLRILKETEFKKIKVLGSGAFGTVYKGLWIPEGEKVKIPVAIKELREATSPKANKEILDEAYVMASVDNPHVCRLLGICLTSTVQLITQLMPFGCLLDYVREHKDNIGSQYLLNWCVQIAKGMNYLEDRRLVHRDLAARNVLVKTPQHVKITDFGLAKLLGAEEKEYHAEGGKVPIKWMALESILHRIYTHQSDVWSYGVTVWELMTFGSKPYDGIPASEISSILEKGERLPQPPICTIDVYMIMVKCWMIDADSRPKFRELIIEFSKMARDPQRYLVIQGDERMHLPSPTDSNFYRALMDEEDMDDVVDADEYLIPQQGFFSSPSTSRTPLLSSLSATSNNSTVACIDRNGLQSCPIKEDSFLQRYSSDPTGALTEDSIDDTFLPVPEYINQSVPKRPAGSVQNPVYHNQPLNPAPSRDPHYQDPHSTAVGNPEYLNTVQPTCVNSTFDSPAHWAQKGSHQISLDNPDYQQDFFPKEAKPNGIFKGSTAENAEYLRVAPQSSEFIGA
Description: as §1, §2

TGFBR1(h) = TGFBR1(h) (Homo sapiens (Human), UniProt P36897); test: IC50 profiler radiometric kinase assay (Millipore); type: biochemical; conditions: TKL
Description: as §1, §2

PDGFRβ(h) = PDGFRβ(h) (Homo sapiens (Human), UniProt P09619); test: IC50 profiler radiometric kinase assay (Millipore); type: biochemical; conditions: TK
Description: as §1, §2

GSK3α(h) = GSK3α(h) (Homo sapiens (Human), UniProt P49840); test: IC50 profiler radiometric kinase assay (Millipore); type: biochemical; conditions: CMGC
Description: as §1, §2

CHK1(h) = CHK1(h) (Homo sapiens (Human), UniProt O14757); test: IC50 profiler radiometric kinase assay (Millipore); type: biochemical; conditions: CAMK
Description: as §1, §2

Pim-1(h) = Pim-1(h) (Homo sapiens (Human), UniProt P11309); test: IC50 profiler radiometric kinase assay (Millipore); type: biochemical; conditions: CAMK
Sequence of Pim-1(h) (P11309 whole entry): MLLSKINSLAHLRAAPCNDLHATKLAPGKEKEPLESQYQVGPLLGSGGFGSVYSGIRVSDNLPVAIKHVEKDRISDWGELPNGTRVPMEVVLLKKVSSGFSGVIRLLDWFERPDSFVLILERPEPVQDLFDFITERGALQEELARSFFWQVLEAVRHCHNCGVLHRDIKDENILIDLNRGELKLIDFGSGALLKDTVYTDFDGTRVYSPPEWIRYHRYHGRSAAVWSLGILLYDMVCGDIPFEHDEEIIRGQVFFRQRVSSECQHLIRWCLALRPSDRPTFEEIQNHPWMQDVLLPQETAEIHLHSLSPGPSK
Description: as §1, §2

[1] = molecular target: PI3 Kinase (p110α/p85α)(h) (Homo sapiens (Human), UniProt P42336); test: IC50 profiler radiometric kinase assay (Millipore); type: biochemical; conditions: Lipid/Atypical
Sequence of PI3 Kinase (p110α/p85α)(h) (P42336 whole entry): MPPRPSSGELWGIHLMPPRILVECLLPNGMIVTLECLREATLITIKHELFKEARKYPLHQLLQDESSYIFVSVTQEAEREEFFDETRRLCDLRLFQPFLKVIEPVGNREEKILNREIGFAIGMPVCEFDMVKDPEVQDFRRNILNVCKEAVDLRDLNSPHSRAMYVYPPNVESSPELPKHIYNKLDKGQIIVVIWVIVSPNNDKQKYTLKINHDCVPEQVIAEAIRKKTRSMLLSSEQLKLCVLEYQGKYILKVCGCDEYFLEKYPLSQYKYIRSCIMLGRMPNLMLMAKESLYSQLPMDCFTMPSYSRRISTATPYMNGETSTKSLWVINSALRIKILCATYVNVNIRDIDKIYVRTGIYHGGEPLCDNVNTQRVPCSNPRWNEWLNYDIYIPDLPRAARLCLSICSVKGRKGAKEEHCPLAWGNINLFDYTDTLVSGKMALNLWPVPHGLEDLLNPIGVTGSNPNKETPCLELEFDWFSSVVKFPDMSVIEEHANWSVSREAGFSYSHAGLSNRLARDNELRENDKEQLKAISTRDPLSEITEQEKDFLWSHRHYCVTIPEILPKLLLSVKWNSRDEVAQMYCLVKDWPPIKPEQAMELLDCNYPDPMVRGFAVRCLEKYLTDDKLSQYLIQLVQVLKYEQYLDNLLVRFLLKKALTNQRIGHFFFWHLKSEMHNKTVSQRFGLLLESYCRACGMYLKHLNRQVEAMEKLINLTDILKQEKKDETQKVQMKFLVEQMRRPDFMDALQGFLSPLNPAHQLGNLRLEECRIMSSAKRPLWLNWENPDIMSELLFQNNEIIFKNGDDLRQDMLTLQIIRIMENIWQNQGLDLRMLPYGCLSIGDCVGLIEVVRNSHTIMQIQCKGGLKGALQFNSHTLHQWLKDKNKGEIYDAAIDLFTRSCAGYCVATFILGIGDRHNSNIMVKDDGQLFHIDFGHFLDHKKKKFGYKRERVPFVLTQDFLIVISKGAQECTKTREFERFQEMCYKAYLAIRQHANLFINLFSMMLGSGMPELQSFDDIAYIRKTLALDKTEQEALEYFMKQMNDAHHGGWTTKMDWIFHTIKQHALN
Sequence of PI3 Kinase (p110α/p85α)(h) (P27986 whole entry partner): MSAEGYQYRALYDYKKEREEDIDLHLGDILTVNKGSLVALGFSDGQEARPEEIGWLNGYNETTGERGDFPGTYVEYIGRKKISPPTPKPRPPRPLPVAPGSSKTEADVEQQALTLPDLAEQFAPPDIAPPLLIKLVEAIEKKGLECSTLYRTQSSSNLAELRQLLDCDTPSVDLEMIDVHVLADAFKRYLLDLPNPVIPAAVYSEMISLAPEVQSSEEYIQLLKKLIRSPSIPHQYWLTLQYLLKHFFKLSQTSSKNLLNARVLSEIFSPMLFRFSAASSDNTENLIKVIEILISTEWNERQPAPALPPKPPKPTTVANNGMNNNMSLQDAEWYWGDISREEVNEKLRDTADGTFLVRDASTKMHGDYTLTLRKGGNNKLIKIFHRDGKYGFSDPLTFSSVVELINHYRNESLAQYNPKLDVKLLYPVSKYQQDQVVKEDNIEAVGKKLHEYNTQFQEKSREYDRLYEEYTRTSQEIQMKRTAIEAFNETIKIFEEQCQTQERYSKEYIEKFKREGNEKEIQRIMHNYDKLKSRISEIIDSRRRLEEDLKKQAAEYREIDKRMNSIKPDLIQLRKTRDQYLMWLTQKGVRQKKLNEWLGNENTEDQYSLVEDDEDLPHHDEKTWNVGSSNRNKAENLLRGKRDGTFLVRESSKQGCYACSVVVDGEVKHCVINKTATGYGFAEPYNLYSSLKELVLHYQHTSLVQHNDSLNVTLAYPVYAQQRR

[2] = DOHH-2, 48 hrs, read-out: DoHH2 EC50

Row | Compound | EC50 (DoHH2; [2]) | IC50 (CDK9/cyclinT1(h)) | IC50 (BTK) | IC50 (MAPK1(h)) | IC50 (JAK3(h)) | IC50 (IKKα(h)) | IC50 (Lyn(h)) | IC50 (PAK2(h)) | IC50 (IKKβ(h)) | IC50 (GSK3β(h)) | IC50 (c-RAF(h)) | IC50 (Syk(h)) | IC50 (Met(h)) | IC50 (JAK2(h)) | IC50 (Plk1(h)) | IC50 (c-Kit(D816V)(h)) | IC50 (Src(1-530)(h)) | IC50 (Bmx(h)) | IC50 (SAPK2a(h)) | IC50 (ASK1(h)) | further results
1 | CCN(CC)CCOc1ccc(Nc2cc3c(cn2)cc(-c2ccccc2)c(=O)n3CC)nc1 [Compound 1, 7-[5-(2-Diethylamino-ethoxy)-pyridin-2-ylamino]-1-ethyl-3-phenyl-1H-[1, 6]naphthyridin-2-one] | < 1000 nM | > 1000 nM | < 100 nM | > 1000 nM | > 1000 nM | > 1000 nM | < 10 nM | > 1000 nM | > 1000 nM | > 1000 nM | 100 to 500 nM | > 1000 nM | > 1000 nM | > 1000 nM | > 1000 nM | 100 to 500 nM | < 10 nM | < 10 nM | 500 to 1000 nM | > 1000 nM | EC50 (DoHH2; DOHH-2, read-out: EC50 (Proliferation)): < 1000 nM; IC50 (Itk(h)): > 1000 nM; IC50 (EGFR(h)): 500 to 1000 nM; IC50 (TGFBR1(h)): 100 to 500 nM; IC50 (PDGFRβ(h)): 100 to 500 nM; IC50 (GSK3α(h)): > 1000 nM; IC50 (CHK1(h)): > 1000 nM; IC50 (Pim-1(h)): > 1000 nM; IC50 [1]: > 1000 nM
2 | CCn1c(=O)c(-c2ccccc2)cc2cnc(Nc3ncc(CCN(C)C)s3)cc21 [Compound 2, 7-[5-(2-Dimethylamino-ethyl)-thiazol-2-ylamino]-1-ethyl-3-phenyl-1H-[1,6]naphthyridin-2-one] | 1000 to 10000 nM | > 1000 nM | > 5000 nM | > 1000 nM | > 1000 nM | > 1000 nM | < 10 nM | > 1000 nM | > 1000 nM | > 1000 nM | 100 to 500 nM | > 1000 nM | > 1000 nM | > 1000 nM | > 1000 nM | > 1000 nM | 10 to 100 nM | 10 to 100 nM | > 1000 nM | > 1000 nM | IC50 (Itk(h)): > 1000 nM; IC50 (EGFR(h)): > 1000 nM; IC50 (TGFBR1(h)): 500 to 1000 nM; IC50 (PDGFRβ(h)): 500 to 1000 nM; IC50 (GSK3α(h)): > 1000 nM; IC50 (CHK1(h)): > 1000 nM; IC50 (Pim-1(h)): > 1000 nM; IC50 [1]: > 1000 nM
